Source: patent US10538497B2, “Compounds as indoleamine 2,3-dioxygenase inhibitors” (Merck Sharp & Dohme Corp., priority 2015, dated 2020)

Columns and labels:
IDO1 [1] = biological target: T1, IDO1 (Homo sapiens (Human), UniProt P14902); test: IDO1 Cellular Assay in Hela Cells Stimulated with IFNγ; type: cell-based; details: Hela cells stimulated with IFNγ 100 ng/mL; read-out: IDO1 HELA Cell Assay, IC50
IDO1 [2] = biological target: T1, IDO1; test: IDO1 Human Whole Blood Assay; type: cell-based; details: LPS and IFNγ 100 ng/mL, kynurenine by LC/MS/MS
Method: IDO1 Human Whole Blood Assay
LPS and IFNγ was prepared in RPMI to a 10× of final conc. (1000 ng/mL), final concentration is 100 ng/mL.
Human whole blood was drawn in sodium heparin coated tubes from healthy internal donors. Two hundred fourty μL of blood was transferred to each of the wells of a v-bottom 96 well plate. Thirty μL of compound was transferred from intermediate dilution plate, and incubated for 15 min. […] from stimulants was then transferred to blood and mixed thoroughly. Plate was covered with breathable membrane and incubated at 37° C. for overnight (18 h).
On day 2 isotope labeled standard of kunurenine and tryptophan was made in water at 10× concentration and 30 μL was added to the blood at 3 μM final concentration. The assay plates were centrifuged at 300×G for 10 min with no brake to separate plasma from red blood cells. Sixty μL of plasma samples was removed without disturbing red blood cells. Plasma was diluted with RPMI in 1:1 ratio and proteins were precipitated out with two volume of Acetonitrile. The plates was centrifuged at 4000×G for 60 min. Twenty μL of supernatant was carefully transferred to a 384 well plate contain 40 μL of 0.1% formic acid in water and analysed by LC/MS/MS.
LC/MS/MS analyses were performed using Thermo Fisher's LX4-TSQ Quantum Ultra system. This system consists of four Agilent binary high-performance liquid chromatography (HPLC) pumps and a TSQ Quantum Ultra triple quadrupole MS/MS instrument. For each sample, 5 μL were injected onto an Atlantis T3 column column (2.1 mm×150 mm, 3 μm particle size) from Waters. The mobile phase gradient pumped at 0.8 mL/min was used to elute the analytes from the column at 25° C. The elution started at 0% B increasing linearly to 25% B at 6.5 min, holding at 25% for 1 min, re-equilibrating to 10 min. Mobile phase A consisted of 0.1% formic acid in water. Mobile phase B consisted of 0.1% of formic acid in acetonitrile. Data was acquired in positive mode using a HESI interface. The operational parameters for the TSQ Quantum Ultra instrument were a spray voltage of 4000 V, capillary temperature of 380° C., vaporizer temperature 400° C., shealth gas 60 arbitrary units, Aux gas 20 arbitrary units, tube lens 85 and collision gas 1.2 mTorr. SRM chromatograms of kynurenine (Q1: 209.2>Q3:94.0) and internal standard (Q1: 215.3>Q3:98.2) were collected for 90 sec. The peak area was integrated by Xcalibur Quan software. The ratios between the kynurenine generated in the reaction and 2D6-Kynurenine spiked-in internal standard were used to generate percentage inhibition and IC50 values. Compounds were titrated and IC50's were calculated by 4 parameter sigmoidal curve fitting formula.

T1 sequence (P14902 whole entry): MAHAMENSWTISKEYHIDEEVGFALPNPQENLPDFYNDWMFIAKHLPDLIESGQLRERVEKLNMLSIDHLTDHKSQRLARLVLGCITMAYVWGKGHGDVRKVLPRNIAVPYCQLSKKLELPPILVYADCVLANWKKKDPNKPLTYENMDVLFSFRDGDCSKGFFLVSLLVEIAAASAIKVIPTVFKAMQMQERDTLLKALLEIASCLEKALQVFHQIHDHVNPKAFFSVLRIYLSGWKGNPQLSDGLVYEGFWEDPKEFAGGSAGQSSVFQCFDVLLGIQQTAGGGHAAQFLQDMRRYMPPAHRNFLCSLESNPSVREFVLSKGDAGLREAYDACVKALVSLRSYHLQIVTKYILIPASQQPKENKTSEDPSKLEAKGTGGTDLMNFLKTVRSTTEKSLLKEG

Row | SMILES | IC50 (IDO1 [1]) | IC50 (IDO1 [2])
1 | NC(=O)NCCSc1nonc1/C(=N/O)Nc1ccc(F)c(Br)c1 [Example 46, N-(3-Bromo-4-fluorophenyl)-N′-hydroxy-4-((2-ureidoethyl)thio)-1,2,5-oxadiazole-3-carboximidamide] | 0.0135 µM | 0.239 µM
2 | O=C(CSc1nonc1/C(=N/O)Nc1ccc(F)c(Br)c1)NC[C@@H](O)CO [Example 42, (R)-2-((4-(N-(3-bromo-4-fluorophenyl)-N′-hydroxycarbamimidoyl)-1,2,5-oxadiazol-3-yl)thio)-N-(2,3-dihydroxypropyl)acetamide] | 0.0343 µM | 0.519 µM
